CC(=O)N[C@@H](C=O)[C@@H](O)[C@H](O)[C@H](O)CO
solubility (mole fraction)
Settings | 283.15 K | 288.15 K | 293.15 K | 298.15 K | 303.15 K | 308.15 K | 313.15 K
in acetone | 4.1e-05 | 7.2e-05 | 8.7e-05 | 0.000115 | 0.000161 | 0.000193 | 0.000241
in ethanol | 0.000166 | 0.000223 | 0.000242 | 0.000268 | 0.000313 | 0.000342 | 0.000382
in methanol | 0.000634 | 0.0007 | 0.000808 | 0.000907 | 0.00109 | 0.00136 | 0.00157
in n-propanol | 7.3e-05 | 8.5e-05 | 0.000115 | 0.000166 | 0.000241 | 0.000324 | 0.000392
in water | 0.0219 | 0.0236 | 0.0257 | 0.028 | 0.0302 | 0.0324 | 0.0344
